Experimental data reported in EP1153612A1, “ANTICANCER AGENT POTENTIATORS” (Tsuruo, Takashi, priority 1999, dated 2000).

Test system: human colon cancer cell HT29
Assay: Anticancer therapy in human cancer cell-transplanted nude mouse model (size of tumor lump)
Type: in vivo, nude mouse BALB/cAnNCrj-nu/nu
Details: Example 5; intraperitoneally three times every 4 days; etoposide 33 mg/kg, lactacystin 40 mg/kg; in combined use lactacystin 5 hours before etoposide; FIG. 11
Description: A human colon cancer cell HT29 was transplanted subcutaneously to a nude mouse to examine a therapeutic effect of combined use of lactacystin, the proteasome inhibiting agent, with etoposide, the anticancer drug targeting topoisomerase II.
As an experimental animal, the nude mouse BALB/cAnNCrj-nu/nu of 8-week old female (Charles River Laboratories product) was used. In order to form a tumor lump in the nude mouse, 1×10^7 HT29 cells was subcutaneously transplanted. After 8 to 10 days of transplanting, the tumor lump of HT29 cells grew to […] and at this point, the therapy was started. […]
The therapy was conducted by dividing the HT29 tumor-transplanted mice into 4 groups to assign 4 animals to 1 group as follows by administering intraperitoneally three times every 4 days: (1) control group untreated with saline, (2) etoposide 33 mg/kg, (3) lactacystin 40 mg/kg, (4) lactacystin 40 mg/kg and etoposide 33 mg/kg. […] Since start of the therapy, a size of the tumor lump was measured to measure effect of the therapy by administration of drugs once every 4 days. […]
The effect of therapy by simultaneous administration of the proteasome inhibiting agent, lactacystin, and the topoisomerase II-targeting anticancer, doxorubicin was examined. […] After start of treatment, once every 4 to 5 days, the size of the tumor lump was measured to measure the effect of treatment by drug administration.

`CC(=O)N[C@@H](CSC(=O)[C@]1([C@@H](O)C(C)C)NC(=O)[C@H](C)[C@@H]1O)C(=O)O` [lactacystin] was tested, and the “suppression of tumor proliferation (size of the tumor lump)” value was “less suppression of tumor proliferation”.
